According to publication PMC10845951, “Characterization of a selective, iron-chelating antifungal compound that disrupts fungal metabolism and synergizes with fluconazole” (Microbiology Spectrum, 2024):

Experiments:
[1] = tested on: Candida spp.; test: Compound screening: Candida proliferation (OD600, 24 h), strain panel; assay type: cell-based; conditions: YNB −iron
Procedure: For experiments, yeast cells were routinely cultured in YPD media and incubated at 30°C overnight. The cultures were refreshed the next day for 2–3 h in YNB −iron (0.69% yeast nitrogen base without amino acids or iron, with 2% dextrose) media, unless stated, at the same temperature. After incubation, the optical density (OD600) of the cell cultures was measured and adjusted to 0.15.
The collismycin compounds were provided by EntreChem (Spain) at stock solutions of 20 mM in DMSO and stored at −20°C. For serial dilutions of the compounds in clear 96-well plates, intermediate stock concentrations of 100 µM of compound (100 µL for each technical replicate) were prepared in YNB −iron media unless otherwise specified, and 1:1 serial dilutions were performed using a multi-channel pipette. Fifty microliters of cell culture (OD600 = 0.15) were added to the wells containing the compounds, for a total volume of 150 µL. The final concentrations in the wells (with three technical replicates) were equivalent to 0.5, 1, 2.1, 4.2, 8.4, 16.7, 33.3, and 66.6 µM. The OD600 of each well was quantified, and the plates were incubated inside plastic bags (to prevent evaporation) at 30°C for 24 h, after which the final OD600 was measured. The EC50 was calculated using the four-parameter log logistic function with the drc package in R ([57]).

[2] = tested on: HEK-293 cells; test: CellTiter-Glo assay for human cells; assay type: cell-based; conditions: HEK293, HEK-293, 24 h
Procedure: (§1) HEK-293 and HS-5 cells were stored in liquid nitrogen, in freezing medium [50% Dulbecco’s Modified Eagle’s Medium (DMEM), 40% fetal bovine serum, and 10% DMSO] for long-term storage. For experimental use, the cells were thawed and then cultured using DMEM containing 10% […] and 1% penicillin/streptomycin.
(§2) The 1:1 serial dilutions of the compounds were performed in 96-well plates to obtain a final concentration range (three technical replicates each) equivalent to 0.781, 1.562, 3.125, 6.25, 12.5, 25, 50, and 100 µM. […] The plates were placed inside plastic bags to prevent evaporation and incubated at 37°C, 5% CO2 for 24 h. One hundred microliters of CellTiter-Glo 2.0 (Promega, G9243) was added to each well and then measured for luminescence using a Synergy 2 Gen 5 plate reader from BioTek.

[3] = tested on: HS-5 cells; test: CellTiter-Glo assay for human cells; assay type: cell-based; conditions: HS5, HS-5, 24 h
Procedure: as §1, §2

[4] = Nano liquid chromatography-mass spectrometry metal binding
Procedure: Liquid chromatography-mass spectrometry (LC-MS)-grade water, acetonitrile, and formic acid (≥99%) were purchased from VWR (Radnor, PA, USA). […] Metal solutions containing 2 µM, 4 µM, 6 µM, and 10 µM CaCl2, CuCl2, FeCl2, FeCl3, MgCl2, MnCl2, and ZnCl2 in 0.1% formic acid in LC-MS-grade water (hereby referred to as 0.1% formic acid) were made. A stock solution of terpyridine (100 µM) in 0.1% formic acid was made and added to the metal solutions to a final concentration of 10 µM terpyridine. All metal solutions in addition to a blank sample containing 10 µM terpyridine in 0.1% formic acid were subjected to nano liquid chromatography (nanoLC-MS) analysis. nanoLC-MS was performed using an nLC EASY 1000 pump connected to a Q-Exactive mass spectrometer (MS) with a Nanospray Flex ion source (all from Thermo Fisher Scientific, Waltham, MA, USA). For separation, a 50 µm (inner diameter) × 5 cm in-house packed nanoLC column containing 2.6-µm Accucore C18 particles (80 Å) was used. The column was packed according to the protocol from Berg et al. ([58]). Trapping of analytes prior to separation was performed online using a 2-cm Acclaim PepMap with 3-µm particles (100 Å). All columns and packing materials were obtained from Thermo Fisher Scientific. The mobile phases consisted of 0.1% formic acid (A) and 90/10/0.1 acetonitrile/water/formic acid (vol/vol/vol) (B).

[5] = tested on: C. glabrata WT (JEY10028) cells; test: Mitochondrial staining with MitoTracker; assay type: cell-based, Candida glabrata; conditions: 6 h and 24 h, vs DMSO
[6] = tested on: G. mellonella larvae infected with C. glabrata 2001HT; test: Survival assay in infected Galleria mellonella; assay type: in vivo; conditions: wild-type C. glabrata (2001HT), 30 µM, vs DMSO
Procedure: (§3) Galleria mellonella was obtained from R.J. Mous Livebait (The Netherlands). The larvae were selected by weight (0.2–0.3 grams) and by the absence of dark spots on the cuticle. The larvae were maintained at room temperature, and the day before the experiment, they were transferred to the temperature at which the experiment was going to be performed (30°C). The number of dead caterpillars was scored every day. […] G. mellonella were infected with either C. glabrata 2001HT or FL-256; C. glabrata cells were grown in liquid media (Oxoid) overnight at 30°C with moderate shaking (150 rpm). Groups of 20 larvae per strain were infected in each experiment. The pro-leg area was cleaned with 70% ethanol using a swab. The larvae were inoculated with 10 µL of C. glabrata suspension at 2.5 × 10^6 cells/mL in PBS containing 50 µg/mL of ampicillin by injection, using a Hamilton syringe with 26-gauge needle in the last left pro-leg.

[7] = tested on: G. mellonella larvae infected with C. glabrata FL-256; test: Survival assay in infected Galleria mellonella; assay type: in vivo; conditions: azole-resistant C. glabrata (FL-256), 30 µM, vs DMSO
Procedure: as §3

[8] = tested on: G. mellonella larvae; test: Toxicity of compound to Galleria mellonella larvae; assay type: in vivo; conditions: high concentration (30 µM)
Procedure: as §3

[9] = tested on: C. albicans WT; conditions: Candida albicans, 24 h, read-out: C. albicans WT Inhibition (%)

## c1ccc(-c2cccc(-c3ccccn3)n2)nc1 [2,2′:6′,2′′-terpyridine]
[1]
  inhibition of growth of Candida spp. compared to ColA: more potently than ColA
[2]
  EC50: 37.1 ± 6.94 µM
[3]
  EC50: 28.7 ± 8.32 µM
[4]; 2-10 µM metal, 10 µM compound
  binding of Fe^2+: preferentially binds Fe^2+ in a concentration-dependent manner
  binding of Fe^3+: much lesser extent than Fe^2+
[4]; even at high concentrations
  binding of Cu^2+: hardly bind
  binding of Zn^2+: hardly bind
[5]
  MitoTracker Red CMXRos fluorescence: lower fluorescence intensities
[6]
  survival of infected larvae: significantly improved the survival
[7]
  survival of infected larvae: significantly improved the survival
[8]
  toxicity to the larvae: well tolerated
[9]
  inhibition at 1 µM: -6.82%
  inhibition at 2 µM: -0.43%
  inhibition at 3 µM: 1.52%
  inhibition at 4 µM: 7.25%
  inhibition at 5 µM: 9.76%
  inhibition at 10 µM: 79.1%
